Data: patent publication US12071425B2 (Genentech, Inc., priority 2018, dated 2024)
Counter-ions that a name gives are not always drawn.

Biological target: kinase domain of IRE1 alpha (His-tagged kinase dead construct KR, AA G547-L977, D688N) (Homo sapiens (Human), UniProt O75460, D688N)
Test: IRE1α TR-FRET competition binding assay
Conditions: competition with Kinase Tracer 236, 0.1 μM; one hour at room temperature
Summary of the method: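 Sf9-expressed kinase-dead KR construct (0.006 μM final) pre-incubated 1 h at 4° C with Eu anti-His antibody (0.002 μM) in HEPES pH 7.5/MgCl2/Brij/DTT buffer; Kinase Tracer 236 (ATP-competitive probe, 0.1 μM final) added with compound. 1 h at room temperature; tracer displacement read by TR-FRET (665/615 nm).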

Sequence of kinase domain of IRE1 alpha (His-tagged kinase dead construct KR, AA G547-L977, D688N) (O75460 547-977 D688N): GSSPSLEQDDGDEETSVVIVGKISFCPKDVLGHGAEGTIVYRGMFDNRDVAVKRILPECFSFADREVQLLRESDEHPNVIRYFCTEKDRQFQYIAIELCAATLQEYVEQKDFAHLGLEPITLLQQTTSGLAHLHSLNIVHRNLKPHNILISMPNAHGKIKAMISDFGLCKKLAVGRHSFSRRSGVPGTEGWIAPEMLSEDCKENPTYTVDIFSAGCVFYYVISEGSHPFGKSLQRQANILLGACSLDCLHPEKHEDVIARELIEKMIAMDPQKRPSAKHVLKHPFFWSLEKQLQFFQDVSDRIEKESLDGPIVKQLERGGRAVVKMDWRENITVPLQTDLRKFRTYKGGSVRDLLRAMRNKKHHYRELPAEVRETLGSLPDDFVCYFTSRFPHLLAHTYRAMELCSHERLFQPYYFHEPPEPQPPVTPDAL

Row | IC50 | Compound
1 | 5.2 nM | O=S(=O)(Nc1c(F)cc(Oc2ncccc2-c2ccnc(N[C@@H]3CNC[C@@H](F)C3)n2)c(F)c1F)N1CCCC1 [Compound 258, N-(2,3,6-Trifluoro-4-((3-(2-(((3S,5S)-5-fluoropiperidin-3-yl)amino)pyrimidin-4-yl)pyridin-2-yl)oxy)phenyl)pyrrolidine-1-sulfonamide]
2 | 2 nM | O=S(=O)(Cc1ccccc1)Nc1c(F)cc(Oc2ncccc2-c2ccnc(N[C@@H]3CNC[C@H](F)C3)n2)c(F)c1F [Compound 259, 1-Phenyl-N-(2,3,6-trifluoro-4-((3-(2-(((3S,5R)-5-fluoropiperidin-3-yl)amino)pyrimidin-4-yl)pyridin-2-yl)oxy)phenyl)methanesulfonamide]
3 | 3.5 nM | O=S(=O)(CC1(F)CC1)Nc1c(F)cc(Oc2ncccc2-c2ccnc(N[C@@H]3CNC[C@@H](F)C3)n2)c(F)c1F [Compound 261, 1-(l-Fluorocyclopropyl)-N-(2,3,6-trifluoro-4-((3-(2-(((3S,5S)-5-fluoropiperidin-3-yl)amino)pyrimidin-4-yl)pyridin-2-yl)oxy)phenyl)methanesulfonamide]
4 | 1.5 nM | O=S(=O)(Nc1c(F)cc(Oc2ncccc2-c2ccnc(N[C@@H]3CNC[C@@H](F)C3)n2)c(F)c1F)N1CCCCC1 [Compound 263, N-(2,3,6-Trifluoro-4-((3-(2-(((3S,5S)-5-fluoropiperidin-3-yl)amino)pyrimidin-4-yl)pyridin-2-yl)oxy)phenyl)piperidine-1-sulfonamide]
5 | 8.6 nM | CN(C)S(=O)(=O)Nc1c(F)cc(Oc2ncccc2-c2ccnc(N[C@@H]3CNC[C@@H](F)C3)n2)c(F)c1F [Compound 266, 4-(2-(4-(Dimethylsulfamoylamino)-2,3,5-trifluoro-phenoxy)-3-pyridyl)-2-(((3S,5S)-5-fluoro-3-piperidyl)amino)pyrimidine]
6 | 2.2 nM | O=S(=O)(CCC1CC1)Nc1c(F)cc(Oc2ncccc2-c2ccnc(N[C@@H]3CNC[C@@H](F)C3)n2)c(F)c1F [Compound 267, 2-Cyclopropyl-N-(2,3,6-trifluoro-4-((3-(2-(((3S,5S)-5-fluoropiperidin-3-yl)amino)pyrimidin-4-yl)pyridin-2-yl)oxy)phenyl)ethane-1-sulfonamide]
7 | 1.1 nM | CCN(C)S(=O)(=O)Nc1c(F)cc(Oc2ncccc2-c2ccnc(N[C@@H]3CNC[C@@H](F)C3)n2)c(F)c1F [Compound 269, 4-(2-(4-((Ethyl(methyl)sulfamoyl)amino)-2,3,5-trifluoro-phenoxy)-3-pyridyl)-2-(((3S,5S)-5-fluoro-3-piperidyl)amino)pyrimidine]
8 | 3.6 nM | O=S(=O)(CC1CC1(F)F)Nc1c(F)cc(Oc2ncccc2-c2ccnc(N[C@@H]3CNC[C@@H](F)C3)n2)c(F)c1F (stereo partly drawn) [Compound 271, 1-(2,2-Difluorocyclopropyl)-N-(2,3,6-trifluoro-4-((3-(2-(((3S,5S)-5-fluoropiperidin-3-yl)amino)pyrimidin-4-yl)pyridin-2-yl)oxy)phenyl)methanesulfonamide]

Further lines, the compound ahead of its results:

Row | Compound | IC50
9 | O=S(=O)(Cc1ccccc1)Nc1c(F)cc(Oc2ncccc2-c2ccnc(N[C@@H]3CNC[C@H](CF)C3)n2)c(F)c1F [Compound 262, 1-Phenyl-N-(2,3,6-trifluoro-4-((3-(2-(((3S,5R)-5-(fluoromethyl)piperidin-3-yl)amino)pyrimidin-4-yl)pyridin-2-yl)oxy)phenyl)methanesulfonamide] | 0.25 nM
10 | CCC(F)(F)CS(=O)(=O)Nc1c(F)cc(Oc2ncc(F)cc2-c2ccnc(N[C@@H]3CNC[C@@H](F)C3)n2)c(F)c1F [Compound 268, 2,2-Difluoro-N-(2,3,6-trifluoro-4-((5-fluoro-3-(2-(((3S,5S)-5-fluoropiperidin-3-yl)amino)pyrimidin-4-yl)pyridin-2-yl)oxy)phenyl)butane-1-sulfonamide] | 1.1 nM
11 | CCC(F)(F)CS(=O)(=O)Nc1c(F)cc(Oc2nc(C)ccc2-c2ccnc(N[C@@H]3CNC[C@@H](F)C3)n2)c(F)c1F [Compound 270, 2,2-Difluoro-N-(2,3,6-trifluoro-4-((3-(2-(((3S,5S)-5-fluoropiperidin-3-yl)amino)pyrimidin-4-yl)-6-methylpyridin-2-yl)oxy)phenyl)butane-1-sulfonamide] | 0.54 nM
12 | CN(C)[C@H]1CC[C@H](Nc2nccc(-c3cccnc3Oc3cc(F)c(NS(=O)(=O)Cc4ccccc4)c(F)c3F)n2)CC1 [Compound 272, N-(4-((3-(2-(((1r,4r)-4-(Dimethylamino)cyclohexyl)amino)pyrimidin-4-yl)pyridin-2-yl)oxy)-2,3,6-trifluorophenyl)-1-phenylmethanesulfonamide hydrochloride] | 0.15 nM
13 | CN=S(=O)(Cc1ccccc1)Nc1ccc(Oc2ncccc2-c2ccnc(N[C@H]3CCCNC3)n2)c(F)c1F (stereo partly drawn) [Compound 273, N-(2,3-difluoro-4-((3-(2-(((S)-piperidin-3-yl)amino)pyrimidin-4-yl)pyridin-2-yl)oxy)phenyl)-N′-methyl-1-phenylmethanesulfonimidamide] | 410 nM
14 | CN=S(=O)(Cc1ccccc1)Nc1ccc(Oc2ncccc2-c2ccnc(N[C@H]3CCCNC3)n2)c(F)c1F (stereo partly drawn) [Compound 274, N-(2,3-difluoro-4-((3-(2-(((S)-piperidin-3-yl)amino)pyrimidin-4-yl)pyridin-2-yl)oxy)phenyl)-N′-methyl-1-phenylmethanesulfonimidamide] | 400 nM
15 | C[C@@]1(F)CNC[C@@H](Nc2nccc(-c3cccnc3Oc3cc(F)c(NS(=O)(=O)Cc4ccccc4F)c(F)c3F)n2)C1 [Compound 275, 1-(2-Fluorophenyl)-N-(2,3,6-trifluoro-4-((3-(2-(((3S,5S)-5-fluoro-5-methylpiperidin-3-yl)amino)pyrimidin-4-yl)pyridin-2-yl)oxy)phenyl)methanesulfonamide] | 0.23 nM
16 | O=C(Nc1ccc(Oc2ncccc2-c2ccnc(N[C@@H]3CNC[C@@H](F)C3)n2)cc1)Nc1cccc(C(F)(F)F)c1 [Compound 276, 1-(4-((3-(2-(((3S,5S)-5-Fluoropiperidin-3-yl)amino)pyrimidin-4-yl)pyridin-2-yl)oxy)phenyl)-3-(3-(trifluoromethyl)phenyl)urea] | 180 nM
17 | Cc1cc(Oc2ncccc2-c2ccnc(N[C@@H]3CNC[C@@](C)(F)C3)n2)c(F)c(F)c1NS(=O)(=O)Cc1ccccc1 [Compound 279, N-(2,3-Difluoro-4-((3-(2-(((3S,5S)-5-fluoro-5-methylpiperidin-3-yl)amino)pyrimidin-4-yl)pyridin-2-yl)oxy)-6-methylphenyl)-1-phenylmethanesulfonamide] | 0.23 nM
18 | Cc1cc(Oc2ncccc2-c2ccnc(N[C@@H]3CNC[C@@H](F)C3)n2)c(F)c(F)c1NS(=O)(=O)Cc1ccccc1 [Compound 280, N-(2,3-Difluoro-4-((3-(2-(((3S,5S)-5-fluoropiperidin-3-yl)amino)pyrimidin-4-yl)pyridin-2-yl)oxy)-6-methylphenyl)-1-phenylmethanesulfonamide] | 0.31 nM
19 | C[C@@]1(F)CNC[C@@H](Nc2nccc(-c3cccnc3Oc3cc(F)c(NS(=O)(=O)Cc4ccc(F)cc4F)c(F)c3F)n2)C1 [Compound 281, 1-(2,4-Difluorophenyl)-N-(2,3,6-trifluoro-4-((3-(2-(((3S,5S)-5-fluoro-5-methylpiperidin-3-yl)amino)pyrimidin-4-yl)pyridin-2-yl)oxy)phenyl)methanesulfonamide] | 0.34 nM
20 | C[C@@]1(F)CNC[C@@H](Nc2nccc(-c3cccnc3Oc3cc(F)c(NS(=O)(=O)Cc4c(F)cccc4F)c(F)c3F)n2)C1 [Compound 282, 1-(2,6-Difluorophenyl)-N-(2,3,6-trifluoro-4-((3-(2-(((3S,5S)-5-fluoro-5-methylpiperidin-3-yl)amino)pyrimidin-4-yl)pyridin-2-yl)oxy)phenyl)methanesulfonamide] | 0.27 nM
21 | Cc1cc(NS(=O)(=O)Cc2c(F)cccc2F)c(F)c(F)c1Oc1ncccc1-c1ccnc(N[C@@H]2CNC[C@@H](F)C2)n1 [Compound 283, N-(2,3-Difluoro-4-((3-(2-(((3S,5S)-5-fluoropiperidin-3-yl)amino)pyrimidin-4-yl)pyridin-2-yl)oxy)-5-methylphenyl)-1-(2,6-difluorophenyl)methanesulfonamide] | 0.41 nM
22 | Cc1ccc(CS(=O)(=O)Nc2c(F)cc(Oc3ncccc3-c3ccnc(N[C@@H]4CNC[C@@](C)(F)C4)n3)c(F)c2F)cc1 [Compound 284, 1-p-Tolyl-N-(2,3,6-trifluoro-4-((3-(2-(((3S,5S)-5-fluoro-5-methylpiperidin-3-yl)amino)pyrimidin-4-yl)pyridin-2-yl)oxy)phenyl)methanesulfonamide] | 0.15 nM
23 | CN1CCN(Cc2ccc(NC(=O)Nc3ccc(Oc4ncccc4-c4ccnc(N[C@@H]5CNC[C@@H](F)C5)n4)cc3)cc2C(F)(F)F)CC1 [Compound 285, 1-(4-((3-(2-(((3S,5S)-5-Fluoropiperidin-3-yl)amino)pyrimidin-4-yl)pyridin-2-yl)oxy)phenyl)-3-(4-((4-methylpiperazin-1-yl)methyl)-3-(trifluoromethyl)phenyl)urea hydrochloride] | 8.9 nM
24 | CN1CCN(Cc2ccc(NC(=O)Nc3cccc(Oc4ncccc4-c4ccnc(N[C@@H]5CNC[C@@H](F)C5)n4)c3)cc2C(F)(F)F)CC1 [Compound 286, 1-(3-((3-(2-(((3S,5S)-5-Fluoropiperidin-3-yl)amino)pyrimidin-4-yl)pyridin-2-yl)oxy)phenyl)-3-(4-((4-methylpiperazin-1-yl)methyl)-3-(trifluoromethyl)phenyl)urea hydrochloride] | 260 nM
25 | Cc1ccccc1CS(=O)(=O)Nc1c(F)cc(Oc2ncccc2-c2ccnc(N[C@@H]3CNC[C@@](C)(F)C3)n2)c(F)c1F [Compound 290, 1-o-Tolyl-N-(2,3,6-trifluoro-4-((3-(2-(((3S,5S)-5-fluoro-5-methylpiperidin-3-yl)amino)pyrimidin-4-yl)pyridin-2-yl)oxy)phenyl)methanesulfonamide] | 0.4 nM
